The record followed here is ChEMBL document CHEMBL1201862, “PubChem BioAssay data set” (2004).

Activity calls are given as the source filed them.

Assay [1] in a line: Potency on glucagon-like peptide 1 release, dose-response in NCI-H716 cell line, half maximal inhibitory concentration (AID 1117344). The format is functional, cell-based.
Assay [2] in a line: general mammalian cell viability loss – inhibitor set, cherry-pick, set 2, cytotoxicity control for miR-122 modulator project, dose response (AID 720697). It counts as functional, cell-based.
Assay [3] has as its system Streptococcus sp. 'group A'. The assay can be described thus: Streptococcus pyogenes SK(-)GAS viability under kanamycin – luminescence, BacTiterGlo, confirmation, counter-screen for streptokinase expression inhibitor project, dose response (AID 1900). The format is functional, organism-based.
In assay [4] the target is T1, Streptokinase A (Streptococcus pyogenes serotype M1, UniProt P10520).
T1 sequence (P10520 whole entry): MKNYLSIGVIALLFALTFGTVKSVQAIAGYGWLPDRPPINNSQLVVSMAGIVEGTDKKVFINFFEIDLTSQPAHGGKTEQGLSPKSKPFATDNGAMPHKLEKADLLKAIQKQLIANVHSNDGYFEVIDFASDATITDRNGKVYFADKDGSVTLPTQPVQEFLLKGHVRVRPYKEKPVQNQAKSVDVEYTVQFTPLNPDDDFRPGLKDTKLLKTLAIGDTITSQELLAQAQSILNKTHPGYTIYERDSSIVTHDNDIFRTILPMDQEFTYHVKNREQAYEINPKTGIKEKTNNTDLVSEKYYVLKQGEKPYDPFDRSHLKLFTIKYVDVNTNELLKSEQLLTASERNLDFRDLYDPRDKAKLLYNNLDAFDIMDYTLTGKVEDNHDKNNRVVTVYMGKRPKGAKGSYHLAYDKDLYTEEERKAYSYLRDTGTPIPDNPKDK
The assay is described as follows: viability-normalized secreted streptokinase activity reduction – plasminogen activation absorbance, OD405, dose response (AID 1914).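 Also: secreted streptokinase activity via plasminogen activation per viability signal from cell pellet.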 The format is functional, Streptococcus pyogenes M1 GAS.

Assay [5] can be described thus: inhibition of ADAM10 peptide cleavage – biochemical, FRET peptide substrate, recombinant human ADAM10, selectivity assay for ADAM17 exosite inhibitor project, dose response (AID 743259).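 Also: ADAM10 enzyme cleaving a FRET peptide substrate.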
The subject of assay [6] is Streptococcus. The assay can be described thus: GAS UMAA2166 growth inhibition – luminescence, BacTiterGlo, counter-screen for streptokinase expression inhibitor project, dose response (AID 1915).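 Also: potency for reduction of bacterial viability or growth.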 The format is functional, organism-based.
Assay [7] concerns the target Disintegrin and metalloproteinase domain-containing protein 17 (Homo sapiens, UniProt P78536). The assay can be described thus: exosite inhibitors of ADAM17, dose response, biochemical (AID 743260).
The test system of assay [8] is HeLa. The assay can be described thus: viability loss in HeLa cells – cell-based, ATP luminescence, cherry-pick samples, cytotoxicity control, dose response (AID 687004). The following applies: Homo sapiens. It counts as functional.
Assay [9] in a line: NIH3T3 cell viability loss – ATP luminescence, mouse fibroblasts, counter-screen, dose response (AID 2010).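 Also: cells exposed to compound for about 90 hours before reading.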 It counts as functional, cell-based.
A short description of assay [10]: Trypanosoma cruzi growth suppression in host cells – NIH3T3 host cells, beta-gal luminescence, confirmation (AID 2044).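 Also: intracellular parasites grown in NIH/3T3 mouse fibroblasts as host cells; luminescent beta-galactosidase reporter signal from transgenic T. cruzi replicating inside host cells; inhibitors lower the luminescence signal.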 It counts as functional, cell-based.
For assay [11], the system named is Vero. The assay can be described thus: mammalian cell viability reduction – secondary assay, cytotoxicity control for West Nile virus antiviral project, dose response (AID 1650). Particulars: Chlorocebus sabaeus. The format is functional.
The target of assay [12] is Photoreceptor-specific nuclear receptor (Homo sapiens, UniProt Q9Y5X4). It counts as functional, cell-based.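 Also: CHO-S cells with Gal4-NCOR and VP16-NR2E3 two-hybrid luciferase reporter.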
Assay [13] relates to CHO. The assay can be described thus: CHO cell viability loss, potency – luminescence, cytotoxicity control for TLR9-MyD88 binding inhibitor project, dose response (AID 588339).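 Also: CHO cells stably coexpressing TLR9 and MyD88 fusions from primary screen; compound exposure lasted 48 hours before viability readout.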 The format is functional, cell-based, hamster. Particulars: Cricetulus griseus.
Assay [14] addresses Beta Lactamase (Pseudomonas aeruginosa, UniProt Q932Y6). The assay can be described thus: BLA reporter interference, concentration series – BLA reporter cells, FRET fluorescence, artefact control for TLR9-MyD88 binding inhibitor project, dose response (AID 588341).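 Also: cell based assay in CHO-K1 cells stably expressing beta-lactamase.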 The format is cell-based.
Assay [15] can be described thus: cytotoxicity in MITF-independent A375 cells – cell-based, CellTiter-Glo luminescence, dry powder, set 4, counter-screen for MITF inhibitor project, dose response (AID 624364).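 Also: A375 melanoma cells are MITF independent so this is a counter screen.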 The following applies: A-375. The format is functional.
Assay [16] can be described thus: viability loss in MITF-independent A375 cells – cell-based, CellTiter-Glo luminescence, dry powder, set 2, counter-screen for MITF inhibitor project, dose response (AID 624489).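 Also: actives are compounds lowering A375 viability meaning general cytotoxicity.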 The format is functional. Particulars: A-375.
Assay [17] deals with T2, RNA-editing ligase 1, mitochondrial (Trypanosoma brucei brucei, UniProt P86926).
T2 sequence (P86926 whole entry): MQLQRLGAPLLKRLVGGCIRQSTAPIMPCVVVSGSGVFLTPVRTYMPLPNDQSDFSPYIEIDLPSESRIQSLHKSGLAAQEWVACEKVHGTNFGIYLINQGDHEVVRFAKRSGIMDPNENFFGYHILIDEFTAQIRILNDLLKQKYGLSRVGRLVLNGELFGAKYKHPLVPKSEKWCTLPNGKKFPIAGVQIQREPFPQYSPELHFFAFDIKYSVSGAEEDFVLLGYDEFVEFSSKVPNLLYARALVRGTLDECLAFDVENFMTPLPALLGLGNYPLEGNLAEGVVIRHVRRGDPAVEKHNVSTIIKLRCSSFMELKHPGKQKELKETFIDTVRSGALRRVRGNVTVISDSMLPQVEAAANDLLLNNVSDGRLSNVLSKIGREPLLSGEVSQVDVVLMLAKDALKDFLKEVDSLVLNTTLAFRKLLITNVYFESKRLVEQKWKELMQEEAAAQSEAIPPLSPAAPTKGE
The assay is described as follows: inhibition of trypanosome RNA editing ligase – biochemical, fluorescence, Trypanosoma brucei, dose response (AID 1117295). The format is functional.

Assay [18] can be described thus: P. falciparum Dd2 growth inhibitors, dose response, SYBR Green, cherry-picked samples (AID 1159567). It counts as functional, cell-based.
Assay [19] can be described thus: activation of miR-122 Renilla sensor silencing – cell-based, Huh7 psiCHECK-miR122, Renilla luciferase, cherry-picked, dose response (AID 651956).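 Also: huh7 hepatoma cells stably carrying a psiCHECK-2 miR-122 sensor plasmid; renilla luciferase signal reporting endogenous miR-122 activity after 48 h compound exposure.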 The format is functional.
For assay [20], the target named is Paired box protein Pax-8 (Homo sapiens, UniProt Q06710). The assay can be described thus: PAX8 transcriptional activity inhibition in RMG-I – RMG-I cells, luciferase, cherry-pick, dose response (AID 687027).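 Also: luciferase reporter driven by Pax8 target thyroperoxidase promoter measured by SteadyGlo luminescence.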 It counts as functional, cell-based.
Assay [21] has as its target T3, Apoptotic protease-activating factor 1 (Homo sapiens, UniProt O14727).
T3 sequence (O14727 whole entry): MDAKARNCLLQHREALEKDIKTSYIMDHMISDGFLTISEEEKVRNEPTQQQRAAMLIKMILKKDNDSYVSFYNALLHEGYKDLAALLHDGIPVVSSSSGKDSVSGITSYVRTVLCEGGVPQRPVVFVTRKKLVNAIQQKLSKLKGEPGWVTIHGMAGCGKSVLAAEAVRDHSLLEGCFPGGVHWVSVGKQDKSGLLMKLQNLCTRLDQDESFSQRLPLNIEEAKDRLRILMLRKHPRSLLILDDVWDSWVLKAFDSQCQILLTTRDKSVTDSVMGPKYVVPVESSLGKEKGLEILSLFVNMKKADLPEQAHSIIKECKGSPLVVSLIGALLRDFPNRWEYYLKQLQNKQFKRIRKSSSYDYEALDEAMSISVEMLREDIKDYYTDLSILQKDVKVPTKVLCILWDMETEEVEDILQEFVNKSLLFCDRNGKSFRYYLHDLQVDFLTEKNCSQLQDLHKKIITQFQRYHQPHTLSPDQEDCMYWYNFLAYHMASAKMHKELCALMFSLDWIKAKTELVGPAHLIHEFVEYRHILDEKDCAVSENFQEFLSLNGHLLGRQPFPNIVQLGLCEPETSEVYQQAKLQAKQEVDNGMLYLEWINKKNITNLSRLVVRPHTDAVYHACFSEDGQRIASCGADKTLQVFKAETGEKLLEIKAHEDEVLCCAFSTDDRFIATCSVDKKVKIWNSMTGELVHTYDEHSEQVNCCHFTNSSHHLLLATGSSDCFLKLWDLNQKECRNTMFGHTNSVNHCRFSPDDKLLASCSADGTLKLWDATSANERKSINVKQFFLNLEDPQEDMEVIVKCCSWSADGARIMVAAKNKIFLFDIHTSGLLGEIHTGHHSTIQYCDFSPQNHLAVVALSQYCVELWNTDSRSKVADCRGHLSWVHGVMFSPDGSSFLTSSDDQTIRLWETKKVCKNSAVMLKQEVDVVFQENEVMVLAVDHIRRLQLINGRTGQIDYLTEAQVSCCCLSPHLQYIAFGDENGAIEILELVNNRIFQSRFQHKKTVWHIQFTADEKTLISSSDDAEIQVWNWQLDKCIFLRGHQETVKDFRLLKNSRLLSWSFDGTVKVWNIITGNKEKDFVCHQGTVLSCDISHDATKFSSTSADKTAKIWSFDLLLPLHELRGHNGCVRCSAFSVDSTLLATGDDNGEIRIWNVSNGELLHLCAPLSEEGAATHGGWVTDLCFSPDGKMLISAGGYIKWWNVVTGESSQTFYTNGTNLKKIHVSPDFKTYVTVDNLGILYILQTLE
The format is functional.

Sequence of Disintegrin and metalloproteinase domain-containing protein 17 (P78536 whole entry, the tested form may be a part): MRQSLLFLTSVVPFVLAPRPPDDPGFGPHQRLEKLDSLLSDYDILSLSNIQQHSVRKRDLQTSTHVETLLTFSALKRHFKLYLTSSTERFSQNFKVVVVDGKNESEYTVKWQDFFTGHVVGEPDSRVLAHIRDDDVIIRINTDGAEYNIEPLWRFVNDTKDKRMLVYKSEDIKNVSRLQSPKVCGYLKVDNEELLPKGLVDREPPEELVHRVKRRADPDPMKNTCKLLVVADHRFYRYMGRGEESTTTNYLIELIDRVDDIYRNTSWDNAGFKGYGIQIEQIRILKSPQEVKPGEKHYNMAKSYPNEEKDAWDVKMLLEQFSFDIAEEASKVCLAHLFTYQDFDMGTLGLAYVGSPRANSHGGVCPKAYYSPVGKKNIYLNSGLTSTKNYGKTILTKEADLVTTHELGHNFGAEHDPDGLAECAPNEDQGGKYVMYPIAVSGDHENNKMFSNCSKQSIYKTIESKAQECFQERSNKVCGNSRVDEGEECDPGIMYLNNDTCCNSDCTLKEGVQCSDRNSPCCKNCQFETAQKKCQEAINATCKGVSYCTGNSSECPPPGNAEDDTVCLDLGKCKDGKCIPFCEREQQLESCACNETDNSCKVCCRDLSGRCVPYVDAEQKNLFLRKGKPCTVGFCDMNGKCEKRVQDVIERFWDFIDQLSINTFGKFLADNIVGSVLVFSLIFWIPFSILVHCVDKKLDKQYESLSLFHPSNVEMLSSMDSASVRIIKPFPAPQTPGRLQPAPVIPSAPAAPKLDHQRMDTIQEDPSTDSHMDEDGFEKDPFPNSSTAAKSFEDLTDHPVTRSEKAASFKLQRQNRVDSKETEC
Sequence of Beta Lactamase (Q932Y6 whole entry): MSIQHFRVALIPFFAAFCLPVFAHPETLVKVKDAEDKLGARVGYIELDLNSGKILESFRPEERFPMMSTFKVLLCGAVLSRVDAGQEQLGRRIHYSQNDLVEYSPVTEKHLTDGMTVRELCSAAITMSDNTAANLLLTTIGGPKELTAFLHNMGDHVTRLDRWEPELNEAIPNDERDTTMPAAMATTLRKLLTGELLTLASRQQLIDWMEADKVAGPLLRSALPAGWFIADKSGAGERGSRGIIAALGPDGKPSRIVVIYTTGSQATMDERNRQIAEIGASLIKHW
Sequence of Paired box protein Pax-8 (Q06710 whole entry): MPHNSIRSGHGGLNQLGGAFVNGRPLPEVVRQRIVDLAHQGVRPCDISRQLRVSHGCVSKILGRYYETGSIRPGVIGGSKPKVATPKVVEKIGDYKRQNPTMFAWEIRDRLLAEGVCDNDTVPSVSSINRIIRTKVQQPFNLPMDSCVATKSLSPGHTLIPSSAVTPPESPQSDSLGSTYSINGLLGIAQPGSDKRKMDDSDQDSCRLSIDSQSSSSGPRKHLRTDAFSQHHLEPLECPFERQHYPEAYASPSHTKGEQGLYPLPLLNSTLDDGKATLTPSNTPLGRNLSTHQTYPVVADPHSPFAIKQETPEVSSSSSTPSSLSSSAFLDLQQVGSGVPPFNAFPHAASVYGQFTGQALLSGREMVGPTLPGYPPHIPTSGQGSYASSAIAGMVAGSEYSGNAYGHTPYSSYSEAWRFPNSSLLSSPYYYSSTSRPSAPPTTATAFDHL
Sequence of Photoreceptor-specific nuclear receptor (Q9Y5X4 whole entry, the tested form may be a part): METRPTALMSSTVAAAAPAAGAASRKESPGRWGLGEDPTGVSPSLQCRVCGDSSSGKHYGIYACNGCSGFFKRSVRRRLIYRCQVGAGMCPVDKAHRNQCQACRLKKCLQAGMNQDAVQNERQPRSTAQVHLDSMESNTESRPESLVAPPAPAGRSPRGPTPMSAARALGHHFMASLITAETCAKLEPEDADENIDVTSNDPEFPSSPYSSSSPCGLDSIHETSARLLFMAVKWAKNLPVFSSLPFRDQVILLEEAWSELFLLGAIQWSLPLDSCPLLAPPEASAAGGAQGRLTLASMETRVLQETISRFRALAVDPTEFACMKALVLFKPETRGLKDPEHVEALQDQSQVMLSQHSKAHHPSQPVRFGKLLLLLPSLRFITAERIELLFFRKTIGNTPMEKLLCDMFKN

Turning to `CCN(CC)CCOc1ccc(/C(=C(\Cl)c2ccccc2)c2ccccc2)cc1` [CLOMIPHENE], in [1], the IC50 was > 40 µM (inactive).

For `CN1C(=O)c2cc(NC(=O)Cc3ccccc3)ccc2OC[C@H]2O[C@@H](CC(=O)NC3CCC3)CC[C@@H]21`, the AC50 in assay [2] was 9.59 µM (active).

Consider `COc1ccc(NC(S)=Nc2nc(CC(=O)Nc3ccccc3OC)cs2)cc1`, for which the half-maximal effective concentration (EC50) is 6.09 µM (active) in [3], > 150 µM (not active) in assay [4] and 17.3 µM (active) in assay [6]. In addition, the IC50 in [5] is > 2.58 µM (active); in assay [7] it was > 69.5 µM (inactive).

On to `CC1CCCCN1C(=O)CSc1nc(C2CC2)nc2c1cnn2-c1ccccc1` (stereo unspecified), for which, in assay [8], the AC50 was > 52 µM (inactive).

Take `CC(C)(CN=C(S)NCCc1ccccc1)CN=C(S)NCCc1ccccc1`: the EC50 in assay [9] is > 60 µM (not active); in assay [10], 3.35 µM (active). Further, the CC50 in assay [11] was 23.7 µM (active).

As to `Cc1ccc(S(=O)(=O)c2ccc([N+](=O)[O-])o2)cc1`, the figures for the IC50 in assay [12], in assay [13] and in [14] were 2.9 µM (active), 0.745 µM (active) and 11.2 µM (inactive), respectively.

With `CCN(CC)CCNC1=C(Nc2ccccc2)C(=O)c2ccccc2C1=O`, the AC50 in assay [15] and in assay [16] was > 70 µM (inactive) throughout.

`O=C(CCN1C(=O)/C(=C/c2ccc(F)cc2)SC1=S)N[C@@H](CO)Cc1ccccc1`: in assay [11], the CC50 is 49.9 µM (active).

For the molecule `O=C1COc2ccc(C(=O)CSc3nc4ccccc4c(=O)n3-c3ccc(Cl)c(Cl)c3)cc2N1`, the CC50 in [11] was 16.6 µM (active).

`COC(=O)C1=C(C)N(Cc2cccc(C(F)(F)F)c2)C(NCc2ccc(OC)cc2)=NC1c1ccccc1C(F)(F)F` (stereo unspecified): the IC50 in [17] was > 96.6 µM (inactive).

On to `C[C@@H]1CN([C@@H](C)CO)C(=O)c2cc(NC(=O)Nc3ccccc3)ccc2O[C@@H]1CN(C)C(=O)Nc1cccc2ccccc12`, for which the AC50 is > 52 µM (inactive) in assay [8] and 8.14 µM (active) in assay [18].

With `CCc1noc(C)c1C(=O)OC(C)C(=O)Nc1ccc2c(c1)OCO2` (stereo unspecified), the IC50 in [5] and in assay [7] was > 69.6 µM (inactive) each time.

As for `COC(=O)C1=C(c2ccc(F)cc2OCc2ccccc2)C[C@@H]2CC[C@H]1N2C(=O)NCc1cccc(C(F)(F)F)c1`, the IC50 in assay [5] and in [7] was > 69.5 µM (inactive) each time.

In the case of `COc1ccc(C2=C(NC(=O)c3cccc(OC)c3)C(=O)c3ccccc3C2=O)cc1`, the results for the concentration at half-maximal activity (AC50) in assay [15] and in assay [16] were 29.5 µM (active) and 13.6 µM (active), respectively.

As for `COc1cc(C(=O)Oc2ccccc2N)cc(OC)c1OC`, in [8], the AC50 was > 52 µM (inactive).

In the case of `C[C@H](CO)N1C[C@H](C)[C@@H](CN(C)Cc2ccc(-c3ccccc3)cc2)Oc2ccc(NC(=O)Cc3ccccc3)cc2CC1=O`, the AC50 is 21.3 µM (active) in assay [19], 28.7 µM (active) in assay [2] and 9.36 µM (active) in assay [20].

Turning to `COCCN(Cc1ccccc1)C(=O)c1cccc(S(=O)(=O)N2CCN(c3ccccc3)CC2)c1`, the IC50 in assay [21] is > 100 µM (inactive).

Turning to `COc1ccc(C2=C(NC(=O)c3ccccc3Cl)C(=O)c3ccccc3C2=O)cc1`, the AC50 is 17.5 µM (active) in assay [15] and 11.8 µM (active) in assay [16].

As to `Cc1ccc(C(=O)NC2=C(c3ccccc3)C(=O)c3ccccc3C2=O)o1`, the values for the AC50 in [15] and in assay [16] were 21.8 µM (active) and 19.1 µM (active), respectively.
